Laboratory results reported in US8513229B2, “4-Azetidinyl-1-phenyl-cyclohexane antagonists of CCR2” (Janssen Pharmaceutica NV, priority 2009, dated 2013).

Molecular target: T1, CCR2 (Homo sapiens, UniProt P41597)
T1 construct: host or cells: THP-1 human monocytic cells
T1 sequence (P41597 1-360 isoform P41597-2): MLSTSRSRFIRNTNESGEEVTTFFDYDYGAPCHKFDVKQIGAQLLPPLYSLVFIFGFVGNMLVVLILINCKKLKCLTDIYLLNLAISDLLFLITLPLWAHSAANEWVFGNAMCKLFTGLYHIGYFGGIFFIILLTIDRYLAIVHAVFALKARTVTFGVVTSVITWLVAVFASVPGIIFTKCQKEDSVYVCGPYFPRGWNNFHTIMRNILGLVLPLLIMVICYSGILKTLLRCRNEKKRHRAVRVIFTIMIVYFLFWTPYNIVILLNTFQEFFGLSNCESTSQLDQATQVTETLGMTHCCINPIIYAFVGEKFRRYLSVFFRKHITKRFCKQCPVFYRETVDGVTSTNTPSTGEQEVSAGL
Assay: MCP-1 Receptor Binding Assay in THP-1 Cells
Details: 0.5 nM 125I labeled MCP-1, 2 hours at 30° C., read-out: Inhibition of MCP-1 Binding IC50 CCR2 Binding
Method: MCP-1 Receptor Binding Assay in THP-1 Cells
Human monocytic cell line THP-1 cells were obtained from American Type Culture Collection (Manassas, Va., USA). […] The cell density was maintained […].
1 μM cold MCP-1 was used for nonspecific binding.

Compound | IC50
CN(C)c1ccc(C(F)(F)F)cc1C(=O)NCC(=O)NC1CN(C2CCC(c3ccccc3)CC2)C1 (centres unmarked) [Example 69, 2-Dimethylamino-N-{[1-(4-phenyl-cyclohexyl)-azetidin-3-ylcarbamoyl]-methyl}-5-trifluoromethyl-benzamide] | 240 nM
N=C(N)Cc1ccc(C2CCC(N3CC(NC(=O)CNC(=O)c4cccc(C(F)(F)F)c4)C3)CC2)cc1 (centres unmarked) [Example 22, N-({1-[4-(4-Carbamimidoylmethyl-phenyl)-cyclohexyl]-azetidin-3-ylcarbamoyl}-methyl)-3-trifluoromethyl-benzamide] | 8600 nM
O=C(CNC(=O)c1cc(F)cc(C(F)(F)F)c1)NC1CN(C2CCC(c3ccccc3)CC2)C1 (single isomer, unassigned) [Example 76a, 3-Fluoro-N-{[1-(4-phenyl-cyclohexyl)-azetidin-3-ylcarbamoyl]-methyl}-5-trifluoromethyl-benzamide] | 220 nM
O=C(CNC(=O)c1cccc(C(F)(F)F)c1)NC1CN(C2CCC(O)(c3ccc(F)cc3)CC2)C1 (single isomer, unassigned) [Example 47a, N-({1-[4-(4-Fluoro-phenyl)-4-hydroxy-cyclohexyl]-azetidin-3-ylcarbamoyl}-methyl)-3-trifluoromethyl-benzamide] | 206 nM
O=C(CNC(=O)c1cccc(C(F)(F)F)c1)NC1CN(C2CCC(c3ccc(Cc4nn[nH]n4)cc3)CC2)C1 (centres unmarked) [Example 23, N-[(1-{4-[4-(2H-Tetrazol-5-ylmethyl)-phenyl]-cyclohexyl}-azetidin-3-ylcarbamoyl)-methyl]-3-trifluoromethyl-benzamide] | 260 nM
COc1ccccc1C1(O)CCC(N2CC(NC(=O)CNC(=O)c3cccc(C(F)(F)F)c3)C2)CC1 (single isomer, unassigned) [Example 56a, N-({1-[4-Hydroxy-4-(2-methoxy-phenyl)-cyclohexyl]-azetidin-3-ylcarbamoyl}-methyl)-3-trifluoromethyl-benzamide] | 5200 nM
COc1cccc(C2(N)CCC(N3CC(NC(=O)CNC(=O)c4cccc(C(F)(F)F)c4)C3)CC2)c1 (single isomer, unassigned) [Example 87a, N-({1-[4-Amino-4-(3-methoxy-phenyl)-cyclohexyl]-azetidin-3-ylcarbamoyl}-methyl)-3-trifluoromethyl-benzamide] | 330 nM
CN(C)CCOc1ccc(C2CCC(N3CC(NC(=O)CNC(=O)c4cccc(C(F)(F)F)c4)C3)CC2)cc1 (centres unmarked) [Example 41, N-[(1-{4-[4-(2-Dimethylamino-ethoxy)-phenyl]-cyclohexyl}-azetidin-3-ylcarbamoyl)-methyl]-3-trifluoromethyl-benzamide] | 160 nM
CC(C)(C)OC(=O)Nc1ccc(C2(O)CCC(N3CC(NC(=O)CNC(=O)c4cccc(C(F)(F)F)c4)C3)CC2)cc1 (centres unmarked) [Example 50, [4-(1-Hydroxy-4-{3-[2-(3-trifluoromethyl-benzoylamino)-acetylamino]-azetidin-1-yl}-cyclohexyl)-phenyl]-carbamic acid tert-butyl ester] | 230 nM
O=C(CNC(=O)c1ccc(NCCO)c(C(F)(F)F)c1)NC1CN(C2CCC(c3ccccc3)CC2)C1 (centres unmarked) [Example 72, 4-(2-Hydroxy-ethylamino)-N-{[1-(4-phenyl-cyclohexyl)-azetidin-3-ylcarbamoyl]-methyl}-3-trifluoromethyl-benzamide] | 400 nM
O=C(CNC(=O)c1ccccc1)NC1CN(C2CCC(c3ccc4c(c3)OCO4)CC2)C1 (single isomer, unassigned) [Example 2a, N-{[1-(4-Benzo[1,3]dioxol-5-yl-cyclohexyl)-azetidin-3-ylcarbamoyl]-methyl}-benzamide] | 390 nM
O=C(CNC(=O)c1cc([N+](=O)[O-])cc(C(F)(F)F)c1)NC1CN(C2CCC(c3ccccc3)CC2)C1 (centres unmarked) [Example 78, 3-Nitro-N-{[1-(4-phenyl-cyclohexyl)-azetidin-3-ylcarbamoyl]-methyl}-5-trifluoromethyl-benzamide] | 1000 nM
O=C(CNC(=O)c1cc(C(F)(F)F)cc(C(F)(F)F)c1)NC1CN(C2CCC(c3ccccc3)CC2)C1 (single isomer, unassigned) [Example 75a, N-{[1-(4-Phenyl-cyclohexyl)-azetidin-3-ylcarbamoyl]-methyl}-3,5-bis-trifluoromethyl-benzamide] | 4700 nM
O=C(CNC(=O)c1cc(Br)cc(C(F)(F)F)c1)NC1CN(C2CCC(c3ccccc3)CC2)C1 (centres unmarked) [Example 77, 3-Bromo-N-{[1-(4-phenyl-cyclohexyl)-azetidin-3-ylcarbamoyl]-methyl}-5-trifluoromethyl-benzamide] | 380 nM
Cn1c(=O)oc2ccc(C3(O)CCC(N4CC(NC(=O)CNC(=O)c5cccc(C(F)(F)F)c5)C4)CC3)cc21 (centres unmarked) [Example 63a, N-({1-[4-Hydroxy-4-(3-methyl-2-oxo-2,3-dihydro-benzooxazol-5-yl)-cyclohexyl]-azetidin-3-ylcarbamoyl}-methyl)-3-trifluoromethyl-benzamide] | 150 nM
O=C(CNC(=O)c1ccc([N+](=O)[O-])c(C(F)(F)F)c1)NC1CN(C2CCC(c3ccccc3)CC2)C1 (centres unmarked) [Example 73, 4-Nitro-N-{[1-(4-phenyl-cyclohexyl)-azetidin-3-ylcarbamoyl]-methyl}-3-trifluoromethyl-benzamide] | 490 nM
CC(C)(C)NC(=O)Nc1ccc(C2CCC(N3CC(NC(=O)CNC(=O)c4cccc(C(F)(F)F)c4)C3)CC2)cc1 (centres unmarked) [Example 18, N-[(1-{4-[4-(3-tert-Butyl-ureido)-phenyl]-cyclohexyl}-azetidin-3-ylcarbamoyl)-methyl]-3-trifluoromethyl-benzamide] | > 25000 nM
CCc1cccc(C2(O)CCC(N3CC(NC(=O)CNC(=O)c4cccc(C(F)(F)F)c4)C3)CC2)c1 (centres unmarked) [Example 52, N-({1-[4-(3-Ethyl-phenyl)-4-hydroxy-cyclohexyl]-azetidin-3-ylcarbamoyl}-methyl)-3-trifluoromethyl-benzamide] | 160 nM

More lines, in order of falling IC50, values ahead:

IC50 | Compound
150 nM | CCn1c(=O)oc2ccc(C3(O)CCC(N4CC(NC(=O)CNC(=O)c5cccc(C(F)(F)F)c5)C4)CC3)cc21 (single isomer, unassigned) [Example 65a, N-({1-[4-(3-Ethyl-2-oxo-2,3-dihydro-benzooxazol-5-yl)-4-hydroxy-cyclohexyl]-azetidin-3-ylcarbamoyl}-methyl)-3-trifluoromethyl-benzamide]
124 nM | O=C(O)COc1ccc(C2CCC(N3CC(NC(=O)CNC(=O)c4cccc(C(F)(F)F)c4)C3)CC2)cc1 (centres unmarked) [Example 44]
110 nM | O=C(CNC(=O)c1cccc(C(F)(F)F)c1)NC1CN(C2CCC(O)(c3cccc(O)c3)CC2)C1 (single isomer, unassigned) [Example 46a, N-({1-[4-Hydroxy-4-(3-hydroxy-phenyl)-cyclohexyl]-azetidin-3-ylcarbamoyl}-methyl)-3-trifluoromethyl-benzamide]
100 nM | CS(=O)(=O)Nc1ccc(C2CCC(N3CC(NC(=O)CNC(=O)c4cccc(C(F)(F)F)c4)C3)CC2)cc1 (centres unmarked) [Example 16, N-({1-[4-(4-Methanesulfonylamino-phenyl)-cyclohexyl]-azetidin-3-ylcarbamoyl}-methyl)-3-trifluoromethyl-benzamide]
85 nM | N#Cc1cccc(C2CCC(N3CC(NC(=O)CNC(=O)c4cccc(C(F)(F)F)c4)C3)CC2)c1 (single isomer, unassigned) [Example 8a, N-({1-[4-(3-Cyano-phenyl)-cyclohexyl]-azetidin-3-ylcarbamoyl}-methyl)-3-trifluoromethyl-benzamide]
62 nM | CN(C)c1ccc(C2(O)CCC(N3CC(NC(=O)CNC(=O)c4cccc(C(F)(F)F)c4)C3)CC2)cc1 (single isomer, unassigned) [Example 54a, N-({1-[4-(4-Dimethylamino-phenyl)-4-hydroxy-cyclohexyl]-azetidin-3-ylcarbamoyl}-methyl)-3-trifluoromethyl-benzamide]
46 nM | O=C(CNC(=O)c1cccc(C(F)(F)F)c1)NC1CN(C2CCC(O)(c3ccc4c(c3)OCO4)CC2)C1 (single isomer, unassigned) [Example 31a, N-{[1-(4-Benzo[1,3]dioxol-5-yl-4-hydroxy-cyclohexyl)-azetidin-3-ylcarbamoyl]-methyl}-3-trifluoromethyl-benzamide]
38 nM | COC(=O)COc1ccc(C2CCC(N3CC(NC(=O)CNC(=O)c4cccc(C(F)(F)F)c4)C3)CC2)cc1 (centres unmarked) [Example 43]
33 nM | O=C(CNC(=O)c1cccc(C(F)(F)F)c1)NC1CN(C2CCC(c3ccccc3)CC2)C1 (single isomer, unassigned) [Example 4a, N-{[1-(4-Phenyl-cyclohexyl)-azetidin-3-ylcarbamoyl]-methyl}-3-trifluoromethyl-benzamide]
30 nM | N#CCc1ccc(C2CCC(N3CC(NC(=O)CNC(=O)c4cccc(C(F)(F)F)c4)C3)CC2)cc1 (single isomer, unassigned) [Example 21a, N-({1-[4-(4-Cyanomethyl-phenyl)-cyclohexyl]-azetidin-3-ylcarbamoyl}-methyl)-3-trifluoromethyl-benzamide]
23 nM | Nc1cc(C(=O)NCC(=O)NC2CN(C3CCC(c4ccccc4)CC3)C2)cc(C(F)(F)F)c1 (centres unmarked) [Example 79, 3-Amino-N-{[1-(4-phenyl-cyclohexyl)-azetidin-3-ylcarbamoyl]-methyl}-5-trifluoromethyl-benzamide]
